Structures can show the parent of a compound that is named as a salt.
Legend:
pKa determination = assay type: physicochemical; settings: 67% aq. dmf
[1] = Protocol: Alternatively, a crystalline salt of compound 19F.B. (free base) can be prepared as illustrated in Scheme 2 supra. Crystallization studies were conducted using 17 different acids with three solvents; ethyl acetate, acetone, and ethanol.

## CC(C)COC(=O)CN [Isobutyl glycine, p-toluenesulfonic acid salt]
pKa determination
  pKa: 7.68

## O=C(O)C[C@H](O)C(=O)O [L-malic]
[1]
  stability of crystalline salt of 19F.B.: crystalline salts stable at 25 °C

## Cl [hydrochloric]
[1]
  stability of crystalline salt of 19F.B.: crystalline salts stable at 25 °C

Source: patent publication US5434171A, “Preparation of 3,4,4-trisubstituted-piperidinyl-N-alkylcarboxylates and intermediates” (priority 1993, dated 1995)
